Tests used:
[1] = Zeta potential before and after incubation with NE; format: physicochemical; conditions: 20 µM, mean ± s.d., n = 3
Procedure: Submitted to Advanced Science temperature. Following the incubation, 10 µL of the solution was added to a copper mesh at 0 and 24 h. Filter paper was used to remove any extra droplets after an overnight stay. The samples were then stained for five minutes with uranyl acetate and then rinsed for one minute with water (10 µL). Finally, dried samples were observed by TEM (Talos 120C, Thermo Fisher Scientific, USA). DLS (Zetasizer Nano ZS, UK) was used to assess the solution for hydrodynamic size and zeta potential at 0 and 24 h following the incubation. Then, the nanofiber structure at 0 h and 24 h after incubation of FTP-NPs was examined with Circular Dichroism (CD) Spectra (Chirascan, UM, Britain). In addition, the variation of fluorescence emission spectra of PpIX by […]
transformation of FTP-NPs.
Pyrene molecules were employed as an indicator to determine the critical aggregation concentration (CAC) of nanoparticles by comparing the fluorescence of their third and first emissive peaks. […] The fluorescence spectra of pyrene (excitation, 335 nm) in different NPs dilutions were recorded. The fluorescence intensity ratio (I3/I1) of the third and first emissive peaks was measured for CAC calculation. […]
Figure S3. […] (a, b) Changes in fluorescence and UV–vis absorption of FTP-NPs following the gradual addition of water (from 0 to 99.5%) to a solution of NPs in Dimethyl Sulfoxide (DMSO). […]

[2] = mouse, in vivo
activated neutrophils = experiment: CCK-8 cytotoxicity; format: cell-based, mouse; conditions: CCK-8, 24 h, different dosages
Procedure: The supernatant was discarded, and the red blood cells were lysed with RBC lysate. The neutrophils were then washed with PBS again, and the supernatant was discarded. The cells were resuspended in culture medium and used for further experiments. […]
Briefly, FTP-NPs were prepared by self-assembly of peptidic nanomaterials and adjusted to various concentrations (0, 50, 100, 200, 400, 800, 1000 μg/mL). […]
10 minutes to remove unbound particles, and the supernatant was collected. […]
In vitro cytotoxicity assay
The CCK-8 assay was used to assess the cell viability of Hepa1-6/luc, resting neutrophils, and activated neutrophils. Following the seeding of 1*10^4 cells per well on a 96-well plate, the cells were subjected to different dosages of FTP-NPs and NFTP-NPs (medium: DMSO = 99:1 v/v). After 24 hours, the cells were incubated for two hours with 10 µL of CCK-8 solution. Finally, a microplate reader (Tecan Infinite M200, Switzerland) was used to measure cell viability based on the absorbance values.
Targeting the capability of NEBP
To evaluate the targeting capability of NE-binding peptide (NEBP), the harvested resting neutrophils and […]

PpIX-GFFVLK-EAIPMSIPPEVK [FTP-NPs]
zeta potential, initial NPs ([1]; before fibrillar transformation): 21.7±0.6 mV | zeta potential after fibrillar transformation ([1]; with NE for 24 h): 9.2±0.2 mV | toxicity in mice (liver function, platelets, creatinine, blood cell count) [2]: nontoxic | survival rate (activated neutrophils): over 95%

Reference: paper PMC12767106, “In Situ Assembly of Transformable Monopeptide on Activated Neutrophils Attenuates NETs‐Induced Hepatocellular Carcinoma Metastasis by Disrupting NE Nuclear Translocation” (Advanced Science, 2025)
